# Patent publication US20260184712A1, “Heterocyclic Compounds as ENT Inhibitors and Compounds for Use in the Treatment of Cancers” (iTeos Belgium SA, priority 2022, published 2026)
# Target: T1, human ENT1 (Homo sapiens, UniProt Q99808)
# T1 construct: JAR cells expressing ENT1 were purchased from ATCC; host or cells: JAR cells
# T1 sequence (Q99808 1-456): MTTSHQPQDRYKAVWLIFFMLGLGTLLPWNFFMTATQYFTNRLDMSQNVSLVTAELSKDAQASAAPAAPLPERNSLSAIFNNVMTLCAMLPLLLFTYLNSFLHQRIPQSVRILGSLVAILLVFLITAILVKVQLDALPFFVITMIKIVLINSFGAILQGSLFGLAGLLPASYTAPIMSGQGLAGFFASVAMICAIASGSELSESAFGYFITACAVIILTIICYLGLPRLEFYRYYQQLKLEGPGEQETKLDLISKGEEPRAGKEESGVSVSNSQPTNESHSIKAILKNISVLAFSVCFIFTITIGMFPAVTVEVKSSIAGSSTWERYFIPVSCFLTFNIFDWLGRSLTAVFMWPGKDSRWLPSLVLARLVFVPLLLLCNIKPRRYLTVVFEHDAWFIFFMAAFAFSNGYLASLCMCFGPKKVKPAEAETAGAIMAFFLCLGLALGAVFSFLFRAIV
# Test: ENT1 binding assay (competition with Sahenta-DY647 on JAR cells)
# Details: competition with SAHENTA-DY647 binding; IC50 categorized; read-out: Binding Assay IC50
# Procedure: Compounds of the present disclosure were assayed to show ability to bind to human ENT1. The assay is a competition between a compound of interest and Sahenta-DY647, an ENT1 inhibitor that emits fluorescence (Ex=630 nm, Em=670 nm). By measuring the fluorescence at the end of the assay, one can assess the binding potency of the compounds tested. The compounds of the present disclosure were tested and compared to known ENT inhibitors, dilazep and NBMPR:
# JAR cells expressing ENT1 were purchased from ATCC® (HTB-144TM). Cells were cultured in RPMI 1640 medium (LONZA®, #BE12-702F/U1) supplemented with 10% FBS (GIBCO®, #10270-106), 10 mM Hepes (LONZA®, #BE17-737E), 1 mM Sodium Pyruvate (LONZA®, #BE13-115E), and 2% Penicillin/Streptomycin (LONZA®, #DE17-603E) at 37° C. and 5% CO2.
# The assay was conducted with the following buffer on the day of the assay: HBSS (LONZA®, #LO-527F) supplemented with 10 mM Hepes (LONZA®, #BE17-737E) and 0.1% BSA (Miltenyi®, #130-091-376).
# JAR cells were resuspended in the described buffer. The compounds of interest and Sahenta-DY647 were diluted 200× with the described buffer.
# A total of 50,000 cells were pre-incubated for 30 min at 4° C. with the compounds of the present disclosure before adding the corresponding amount of Sahenta-DY647 (100 nM) to the minimal concentration at Bmax and incubating for an additional 30 min at 4° C. The total volume of the reaction was 100 μL (50 μL of cells, 25 μL of the compounds of the present disclosure, and 25 μL of Sahenta-DY647) in a U-bottom 96 well plate (Greiner®, #650-180). The plates were washed 2× by centrifugation (4 min, 400 rcf at 4° C.) in the same buffer. Cells were re-suspended in 70 μL of the buffer and 50 μL was transferred to a Black 384 Optiplate (PerkinElmer®, #6007279). Fluorescence (Ex=630 nm, Em=670 nm) was acquired on a Spectramax i3x (Molecular Devices®).
# Dose-response data from the compounds were analyzed with Graphpad Prism 9.1.1@software, using nonlinear regression applied to a sigmoidal dose-response model and the following equation:
# Y=Bottom+(Top-Bottom)/(1+10^((LogIC50−X)*HillSlope)), with a shared bottom and top between the test reagent and dipyridamole.
# Data from multiple experiments were compiled by taking the average pIC50 value for the reagent in question±the standard deviation (s.d.) and expressing it as an average IC50 value in nM.
# The inhibitory effect of the test compound was expressed as a percentage of the inhibition of SAHENTA-DY647 binding.
row,Compound,IC50 [nM]
1,"Cc1cn(C2OC(C)C(O)C2O)c2ncnc(SCc3ccc([N+](=O)[O-])cc3)c12 (single isomer, unassigned) [Compound 194]",20 to 500
2,"Cc1cn(C2OC(C)C(O)C2O)c2ncnc(SCc3ccc([N+](=O)[O-])cc3)c12 (single isomer, unassigned) [Compound 286]",> 500
3,C[C@H]1O[C@@H](n2c(N(C)C3CCCC3)nc3c(OCc4ccc([N+](=O)[O-])cc4)ncnc32)[C@H](O)[C@@H]1O [Compound 1],> 500
4,C[C@H]1O[C@@H](n2c(C(=O)NC3CCCC3)nc3c(OCc4ccc([N+](=O)[O-])cc4)ncnc32)[C@H](O)[C@@H]1O [Compound 3],20 to 500
5,C[C@H]1O[C@@H](n2c(N)nc3c(OCc4ccc([N+](=O)[O-])cc4)ncnc32)[C@H](O)[C@@H]1O [Compound 4],20 to 500
6,C[C@H]1O[C@@H](n2c(-c3cnn(C)c3)nc3c(OCc4ccc([N+](=O)[O-])cc4)ncnc32)[C@H](O)[C@@H]1O [Compound 13],20 to 500
7,Cc1cc(COc2ncnc3c2nc(NC2CCCC2)n3[C@@H]2O[C@H](C)[C@@H](O)[C@H]2O)ccn1 [Compound 15],20 to 500
8,CNc1nc2c(OCc3ccc([N+](=O)[O-])cc3)ncnc2n1[C@@H]1O[C@H](C)[C@@H](O)[C@H]1O [Compound 19],20 to 500
9,C[C@H]1O[C@@H](n2c(NCCN3CCCC3)nc3c(OCc4ccc([N+](=O)[O-])cc4)ncnc32)[C@H](O)[C@@H]1O [Compound 32],20 to 500
10,C[C@H]1O[C@@H](n2c(NCCN3CCN(C)CC3)nc3c(OCc4ccc([N+](=O)[O-])cc4)ncnc32)[C@H](O)[C@@H]1O [Compound 33],20 to 500
11,C[C@H]1O[C@@H](n2c(NCCO)nc3c(OCc4ccc(C#N)cc4)ncnc32)[C@H](O)[C@@H]1O [Compound 41],20 to 500
12,C[C@H]1O[C@@H](n2c(NCCCO)nc3c(OCc4ccc(C#N)cc4)ncnc32)[C@H](O)[C@@H]1O [Compound 43],20 to 500
13,C[C@H]1O[C@@H](n2c(NCCCS(C)(=O)=O)nc3c(OCc4ccc([N+](=O)[O-])cc4)ncnc32)[C@H](O)[C@@H]1O [Compound 60],1 to 20
14,C[C@H]1O[C@@H](n2c(NCCCS(C)(=O)=O)nc3c(OCc4ccc(C#N)cc4)ncnc32)[C@H](O)[C@@H]1O [Compound 61],20 to 500
15,C[C@H]1O[C@@H](n2c(NCCCS(C)(=O)=O)nc3c(OCc4ccc(OC(F)F)cc4)ncnc32)[C@H](O)[C@@H]1O [Compound 62],1 to 20
16,C[C@H]1O[C@@H](n2c(Nc3cnn(C)c3)nc3c(OCc4ccc(C#N)cc4)ncnc32)[C@H](O)[C@@H]1O [Compound 63],20 to 500
17,C[C@H]1O[C@@H](n2c(NCc3ncn(C)n3)nc3c(OCc4ccc(C#N)cc4)ncnc32)[C@H](O)[C@@H]1O [Compound 69],20 to 500
18,Cc1ncc(CNc2nc3c(OCc4ccc(C#N)cc4)ncnc3n2[C@@H]2O[C@H](C)[C@@H](O)[C@H]2O)cn1 [Compound 71],1 to 20
19,COc1ncc(CNc2nc3c(OCc4ccc(C#N)cc4)ncnc3n2[C@@H]2O[C@H](C)[C@@H](O)[C@H]2O)cn1 [Compound 72],1 to 20
20,C[C@H]1O[C@@H](n2c(NC3CCCC3)nc3c(OCc4ccc(OC(F)(F)F)cc4)ncnc32)[C@H](O)[C@@H]1O [Compound 88],1 to 20
21,Cc1ccc(COc2ncnc3c2nc(NC2CCCC2)n3[C@@H]2O[C@H](C)[C@@H](O)[C@H]2O)cc1 [Compound 90],1 to 20

# Results, then the molecule that gave them:
row,IC50 [nM],Compound
1,1 to 20,"CC1OC(n2c(NC3CCC(C)(O)CC3)nc3c(OCc4ccc([N+](=O)[O-])cc4)ncnc32)C(O)C1O (single isomer, unassigned) [Compound 117]"
2,1 to 20,"CC1OC(n2c(NC3CCC(C)(O)CC3)nc3c(OCc4ccc([N+](=O)[O-])cc4)ncnc32)C(O)C1O (single isomer, unassigned) [Compound 118]"
3,1 to 20,"CC1OC(n2c(NC3CC(C)(O)C3)nc3c(OCc4ccc([N+](=O)[O-])cc4)ncnc32)C(O)C1O (single isomer, unassigned) [Compound 133]"
4,< 1,"CC1OC(n2c(NC3CC(C)(O)C3)nc3c(OCc4ccc([N+](=O)[O-])cc4)ncnc32)C(O)C1O (single isomer, unassigned) [Compound 134]"
5,< 1,"CC1OC(n2c(NC3CC(C)(O)C3)nc3c(N4CCc5ccc([N+](=O)[O-])cc5C4)ncnc32)C(O)C1O (single isomer, unassigned) [Compound 137]"
6,< 1,"CC1OC(n2c(NC3CC(C)(O)C3)nc3c(N4CCc5ccc([N+](=O)[O-])cc5C4)ncnc32)C(O)C1O (single isomer, unassigned) [Compound 141]"
7,1 to 20,C[C@H]1O[C@@H](n2c(NCCOc3ccccc3)nc3c(OCc4ccc(OC(F)F)cc4)ncnc32)[C@H](O)[C@@H]1O [Compound 7]
8,< 1,C[C@H]1O[C@@H](n2c(Nc3cn[nH]c3)nc3c(OCc4ccc([N+](=O)[O-])cc4)ncnc32)[C@H](O)[C@@H]1O [Compound 35]
9,1 to 20,CCNc1nc2c(OCc3ccc(C#N)cc3)ncnc2n1[C@@H]1O[C@H](C)[C@@H](O)[C@H]1O [Compound 37]
10,1 to 20,CCNc1nc2c(OCc3ccc(OC(F)F)cc3)ncnc2n1[C@@H]1O[C@H](C)[C@@H](O)[C@H]1O [Compound 38]
11,1 to 20,C[C@H]1O[C@@H](n2c(NC3CC3)nc3c(OCc4ccc(C#N)cc4)ncnc32)[C@H](O)[C@@H]1O [Compound 39]
12,1 to 20,C[C@H]1O[C@@H](n2c(NCCO)nc3c(OCc4ccc(OC(F)F)cc4)ncnc32)[C@H](O)[C@@H]1O [Compound 42]
13,1 to 20,COCCCNc1nc2c(OCc3ccc(C#N)cc3)ncnc2n1[C@@H]1O[C@H](C)[C@@H](O)[C@H]1O [Compound 45]
14,1 to 20,C[C@H]1O[C@@H](n2c(N[C@H]3C[C@@H](O)C3)nc3c(OCc4ccc([N+](=O)[O-])cc4)ncnc32)[C@H](O)[C@@H]1O [Compound 48]
15,< 1,C[C@H]1O[C@@H](n2c(N[C@H]3C[C@H](O)C3)nc3c(OCc4ccc(C#N)cc4)ncnc32)[C@H](O)[C@@H]1O [Compound 50]
16,1 to 20,C[C@H]1O[C@@H](n2c(N[C@H]3C[C@@H](O)C3)nc3c(OCc4ccc(C#N)cc4)ncnc32)[C@H](O)[C@@H]1O [Compound 51]
17,< 1,C[C@H]1O[C@@H](n2c(NC3CCC(O)CC3)nc3c(OCc4ccc(C#N)cc4)ncnc32)[C@H](O)[C@@H]1O (stereo partly drawn) [Compound 52]
18,< 1,C[C@H]1O[C@@H](n2c(N[C@H]3CC[C@@H](O)CC3)nc3c(OCc4ccc([N+](=O)[O-])cc4)ncnc32)[C@H](O)[C@@H]1O [Compound 56]
19,< 1,C[C@H]1O[C@@H](n2c(N[C@H]3CC[C@H](O)CC3)nc3c(OCc4ccc([N+](=O)[O-])cc4)ncnc32)[C@H](O)[C@@H]1O [Compound 57]
20,< 1,Cc1nn(C)c(C)c1CNc1nc2c(OCc3ccc([N+](=O)[O-])cc3)ncnc2n1[C@H]1O[C@H](C)[C@@H](O)[C@H]1O [Compound 67]
21,< 1,C[C@H]1O[C@@H](n2c(N[C@@H]3CCC(F)(F)C3)nc3c(OCc4ccc([N+](=O)[O-])cc4)ncnc32)[C@H](O)[C@@H]1O [Compound 83]
22,< 1,C[C@H]1O[C@@H](n2c(N[C@H]3CCC(F)(F)C3)nc3c(OCc4ccc([N+](=O)[O-])cc4)ncnc32)[C@H](O)[C@@H]1O [Compound 84]
23,< 1,C[C@H]1O[C@@H](n2c(NC3CCCC3)nc3c(OCc4ccc([N+](=O)[O-])nc4)ncnc32)[C@H](O)[C@@H]1O [Compound 85]
24,< 1,Cc1cc(COc2ncnc3c2nc(NC2CCCC2)n3[C@@H]2O[C@H](C)[C@@H](O)[C@H]2O)ccc1[N+](=O)[O-] [Compound 86]
